In patent US10676436B2, “NLRX1 ligands” (Landos Biopharma, Inc., priority 2018, dated 2020):

What was measured:
[1] = biological target: T1, mutated NLRX1 protein (D677A, F680A, F681A, E684A) (Homo sapiens, UniProt Q86UT6, D677A/E684A/F680A/F681A); assay: Surface plasmon resonance binding to NLRX1-Mutant
T1 construct: made in house; host or cells: Pichia pastoris (by 'similar methods')
Protocol: NLRX1 production and purification. Human NLRX1 (www.uniprot.org; UniProtKB—Q86UT6 (NLRX1 HUMAN)) was cloned into E. coli, amplified and transfected in Pichia pastoris. P. pastoris was plated onto adenine selective media. Stable transfected colonies were selected and grown within YPD broth at 30° C. for 24 hours, 240 RPM shaking. Starter culture was used to inoculate base media (1% yeast extract, 2% peptone, 1% sorbitol, 2% yeast nitrogen base) containing biotin and buffered with potassium phosphate. Inoculated base media was incubated for 48 hours at 30° C., 240 RPM. P. pastoris was then pelleted by centrifugation and resuspended in expression media (1% sorbitol, 2% yeast nitrogen base) containing biotin and buffered with potassium phosphate. Culture was induced daily for protein production through addition of methanol and incubated for a total of 4 days at 28° C., 240 RPM. After incubation, cells were pelleted by centrifugation and lysed by sonication. Recombinant NLRX1 protein was purified by fast protein liquid chromatography (AktaPrime) using immobilized metal affinity chromatography. Fractions of protein were eluted in 1 mL aliquots and evaluated for NLRX1 content. A mutated NLRX1 protein was generated using similar methods to disrupt binding within the predicted binding site through altering four residues to alanine (D677A, F680A, F681A, and E684A).
A Biacore T200 was used to evaluate binding to the NLRX1 protein. NLRX1-WT and NLRX1-Mutant were used as proteins to immobilize onto the CM5 sensor chip. NLRX1-WT was diluted in 10 mM sodium acetate buffer at pH 4.0 and immobilized onto the flow cell to a level of ˜3700 RU, using standard amine coupling chemistry. NLRX1-Mutant was diluted in 10 mM sodium acetate buffer at pH 4.0 and immobilized onto the flow cell to a level of ˜3100 RU, using standard amine coupling chemistry. 20 mM MOPS, 150 mM NaCl, 5 mM sodium acetate, 1 mM EDTA, 0.05% Tween-20, pH 8.0 buffer (Running buffer) was used as the immobilization running buffer. Based on the immobilized response values, theoretical Rmax values were calculated. […]

DSS model of colitis = DSS model of colitis (acute model of IBD); assay type: in vivo, mice
Protocol: Mice were given 8% (w/v) DSS in drinking water for seven days to induce disruption of the epithelial layer. At project initiation, mice were 8 weeks of age and began dosing 24 hours after being placed on 8% DSS. Mice were weighed and scored daily for symptoms of disease (diarrhea, rectal bleeding, rectal inflammation, overall behavior). Treatment administration. NX-13 was prepared within a 0.5% methylcellulose (12-15 cP) solution. Dosage used was 20 mg/kg delivered once daily. Mice were weighed on a weekly basis to update dosage formulation. Dosage was calculated based off mean body weights for each gender. Oral dosage was delivered by orogastric gavage of dosage in 0.2 mL volume. Colons were collected into RPMI/FBS buffer containing collagenase (300 U/mL) and DNase (50 U/mL) for digestion. Tissues were digested for 60 minutes under stirring at 37° C. Resultant cellular suspensions were filtered through 100 μm strainers, centrifuged (300×g, 8 min), and washed in fresh RPMI. Following filtration of the resulting single cell suspensions, immune cells were purified by Percoll gradient of cell-containing 40% Percoll overlayed onto 70% Percoll solution. After centrifugation, interphase was collected and washed to obtain enriched colonic lamina propria cell fractions. Cells were labeled with mixtures of extracellular (CD45, CD3, CD4, CD8, CD19, NK1.1, CD25, F4/80, CD11b, Gr1, CX3CR1, CD64) and intracellular (Tbet, RORγT, FOXP3, IFNγ, IL17, IL10) antibodies in a sequential live staining in 96-well plates. Data was acquired using a FACS Celesta flow cytometer with FACSDiva software. Total RNA from colon and cells was generated using the Qiagen RNeasy mini kit. cDNA was generated using the BioRad iScript cDNA synthesis kit. Standard curves were generated by serial dilution of purified product from a standard PCR reaction with Taq DNA polymerase followed by purification using the Qiagen MinElute PCR purification kit. Expression levels were obtained from quantitative real-time PCR with SybrGreen supermix on a BioRad CFX96 Thermal cycler followed by normalization to expression of β-actin.

[2] = test system: peripheral blood mononuclear cells (PBMCs) of Crohn's disease patients; assay: Ex vivo treatment of PBMCs of Crohn's disease patients, flow cytometry; assay type: cell-based, human
Protocol: Samples were obtained from male and female donors clinically categorized as having moderate to severe disease. Age and current medications were not used as exclusion criteria. Whole blood was collected into heparinized vacuum tubes. Whole blood was diluted 1:3 volumes with sterile phosphate buffered saline. LeucoSep (Greiner) were prepared by addition of Lymphocyte Separation Media followed by 15 second centrifugation at max speed. Diluted whole blood was added to LeucoSep tubes. After centrifugation (2000×g, 20 min), PBMCs were collected from the interphase by Pasteur pipette. Remaining red blood cells were lysed by hypotonic lysis and suspension was filtered through a […] cell strainer. PBMCs were washed and re-suspended in sterile cell culture media, RPMI containing 10% fetal bovine serum, 2.5% Hepes solution, 1% L-glutamine, 1% penicillin/streptomycin, 1% sodium pyruvate, and 1% essential amino acids (complete RPMI).
Target cells were incubated for 24 h in complete RPMI culture media at 37° C. Cells were incubated in the presence of NX-13 ranging in concentration from 1 nM to 100 nM. NX-13 stock solution was prepared at 100 mM in dimethyl sulfoxide (DMSO) and diluted to desired concentration in culture media. DMSO concentrations were adjusted to be equal across all doses and vehicle treatments. Six hours prior to assay, cells were stimulated with phorbol 12-myristate 13-acetate (PMA) and ionomycin to stimulate cellular activation. Cells were assayed for desired data at 24 h.
Prior to collection, cells were incubated BD GolgiStop (2 μL GolgiStop to 3 mL of total media) to allow intracellular accumulation of cytokines. Cells were live stained with extracellular (CD45, CD3, CD4, CD8, CD11b) and intracellular (FOXP3, IL-10, IL-4, IFNγ, TNFα) in a sequential manner. Data was acquired on a BD FACs Celesta and analyzed using FACSDiva. Non-viable and non-singlet cells were excluded from analysis. Data is presented as percentage of CD45+ cells or % viable, singlets.

[3] = day 7 of DSS challenge, qRT-PCR, normalized to beta-actin
[4] = oral 20 mg/kg, day 7 of DSS challenge, flow cytometry
[5] = PBMCs from Crohn's disease patients

T1 sequence (Q86UT6 87-975 D677A/F680A/F681A/E684A): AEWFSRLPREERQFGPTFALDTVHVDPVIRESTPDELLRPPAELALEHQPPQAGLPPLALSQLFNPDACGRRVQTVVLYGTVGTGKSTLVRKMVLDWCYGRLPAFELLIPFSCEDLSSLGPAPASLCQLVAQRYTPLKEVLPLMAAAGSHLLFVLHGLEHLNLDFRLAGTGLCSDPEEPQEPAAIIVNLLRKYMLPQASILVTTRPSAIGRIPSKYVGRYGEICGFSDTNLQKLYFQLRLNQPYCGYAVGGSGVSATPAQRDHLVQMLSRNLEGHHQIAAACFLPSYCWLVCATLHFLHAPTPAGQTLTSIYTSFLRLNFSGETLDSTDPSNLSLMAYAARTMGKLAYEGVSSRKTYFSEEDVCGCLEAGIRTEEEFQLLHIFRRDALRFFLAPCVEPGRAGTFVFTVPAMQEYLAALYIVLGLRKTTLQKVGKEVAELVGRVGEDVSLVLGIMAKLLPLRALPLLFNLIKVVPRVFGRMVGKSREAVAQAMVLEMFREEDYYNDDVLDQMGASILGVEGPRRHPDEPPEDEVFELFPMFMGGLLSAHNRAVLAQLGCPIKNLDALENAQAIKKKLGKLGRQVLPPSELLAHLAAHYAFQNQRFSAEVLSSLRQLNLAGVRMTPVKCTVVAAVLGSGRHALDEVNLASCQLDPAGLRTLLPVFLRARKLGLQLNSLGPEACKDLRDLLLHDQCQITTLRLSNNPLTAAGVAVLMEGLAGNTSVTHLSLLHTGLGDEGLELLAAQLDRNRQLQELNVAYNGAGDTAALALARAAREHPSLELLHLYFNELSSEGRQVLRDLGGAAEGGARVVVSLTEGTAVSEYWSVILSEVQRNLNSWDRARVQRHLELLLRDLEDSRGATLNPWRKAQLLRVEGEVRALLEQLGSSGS

Cc1cccc(Oc2cc(Oc3cccc(C)n3)cc(Oc3cccc(C)n3)c2)n1 [NX-13, 1,3,5-tris (6-methylpyridin-2-yloxy) benzene]
binding to the mutated NLRX1 protein [1]: Loss of binding | expression of Ifng in the whole colon (DSS model of colitis; [3]): reduced | expression of Tnfa in the whole colon (DSS model of colitis; [3]): reduced | maximal observed reduction of disease activity (DSS model of colitis; oral 20 mg/kg once daily, day 6): 50% | number of FOXP3+ regulatory CD4+ T cells (DSS model of colitis; oral 20 mg/kg, colon): did not reduce | reduction of Th1 cells in the colonic lamina propria (DSS model of colitis; [4]): more than 50% | reduction of neutrophils in the colonic lamina propria (DSS model of colitis; [4]): more than 50% | concentrations at which IFNγ+ cells decreased [2]: above 50 nM | concentrations at which IL10+ CD4+ T cells increased [2]: ≥ 50 nM | IFNγ+ cells [2, 5]: Dose dependent decreases | IL-4 producing CD4+ T cells [2, 5]: potently decreased | TNFα producing CD4+ T cells [2, 5]: potently decreased | percentage of IL10+ CD4+ T cells [2, 5]: increased | concentrations at which IL-4 producing CD4+ T cells decreased ([2]; as low as): ≥ 10 nM | concentrations at which TNFα producing CD4+ T cells decreased ([2]; as low as): ≥ 10 nM
